According to patent US11420975B2, “Substituted imidazo[1,5-a]pyrazines as Bruton's tyrosine kinase inhibitors” (TRANSTHERA SCIENCES (NANJING), INC., priority 2018, dated 2022):

What was measured:
BTK(wt) = BTK(wt) (Homo sapiens (Human), UniProt Q06187); test: In vitro inhibitory activity against BTK(wt) enzyme (33P-ATP filter binding); assay type: biochemical; conditions: class symbols
Description: (§1) The substrate solution was prepared by adding the substrate poly(Glu, Tyr) sodium salt (Sigma Aldrich, St. Louis, Mo.) to the substrate reaction buffer (20 mM Hepes (pH 7.5), 10 mM MgCl2, 1 mM EGTA, 0.02% Brij35, 0.02 mg/mL BSA, 0.1 mM Na3VO4, 2 mM DTT and 1% DMSO) (final substrate concentration in the reaction solution was 0.2 μM). Test compound was formulated into stock solutions at 10 mM concentration with 100% DMSO, and 3-fold serial dilution for 10 doses was performed in a 384-well cyclic olefin copolymer LDV microplate. […] Test compound in 100% DMSO was then added to the kinase reaction mixture by acoustic liquid transfer technology (Echo 550; nanoliter range) (Labcyte Inc, Sunnyvale, Calif.) and incubated for 20 min at room temperature. 33P-ATP (specific activity 10 μCi/μL) was added to the reaction mixture to initiate the reaction, followed by incubation at room temperature for 2 h. A small portion of the reaction mixture was dropped onto P-81 ion exchange filter paper (Whatman). After washing the unbound phosphate from the filter paper with 0.75% phosphate buffer (three times) and drying, the remaining radioactivity on the filter paper was measured. The kinase activity was expressed as the percentage of the remaining kinase activity in the test sample to the kinase activity in the vehicle (dimethyl sulfoxide) blank control. IC50 values were calculated by curve fitting the data obtained using Prism (GraphPad Software).

BTK(C481S) = BTK(C481S) (Homo sapiens (Human), UniProt Q06187, C481S); test: In vitro inhibitory activity against BTK(C481S) enzyme (33P-ATP filter binding); assay type: biochemical; conditions: class symbols; read-out: IC50 BTK(C48IS)
BTK(C481S), sequence (Q06187 whole entry C481S): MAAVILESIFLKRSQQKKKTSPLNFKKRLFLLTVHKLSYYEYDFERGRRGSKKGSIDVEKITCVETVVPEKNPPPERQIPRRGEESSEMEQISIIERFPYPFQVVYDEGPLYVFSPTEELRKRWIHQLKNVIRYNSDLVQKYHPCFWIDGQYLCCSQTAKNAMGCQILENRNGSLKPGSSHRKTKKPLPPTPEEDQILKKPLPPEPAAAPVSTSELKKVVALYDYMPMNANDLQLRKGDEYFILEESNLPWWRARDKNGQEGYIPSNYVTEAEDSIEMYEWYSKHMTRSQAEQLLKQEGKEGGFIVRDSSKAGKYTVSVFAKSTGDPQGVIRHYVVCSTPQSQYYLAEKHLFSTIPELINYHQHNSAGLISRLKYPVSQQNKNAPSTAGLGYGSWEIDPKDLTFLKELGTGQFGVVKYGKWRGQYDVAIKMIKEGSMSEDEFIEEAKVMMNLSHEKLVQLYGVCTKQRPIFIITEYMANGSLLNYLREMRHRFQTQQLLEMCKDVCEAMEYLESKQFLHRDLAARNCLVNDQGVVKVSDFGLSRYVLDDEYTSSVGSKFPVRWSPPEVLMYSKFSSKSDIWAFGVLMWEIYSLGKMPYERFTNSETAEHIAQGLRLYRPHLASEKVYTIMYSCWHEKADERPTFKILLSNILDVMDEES
Description: as §1

BTK(wt), sequence (Q06187 whole entry): as the sequence (Q06187 whole entry C481S) above, with S481C counted along it

Row | Structure (SMILES) | IC50 (BTK(wt)) [nM] | IC50 (BTK(C481S)) [nM]
1 | Nc1nccn2c(C34CCC(NC(=O)c5ccccn5)(CC3)C4)nc(-c3ccc(C(=O)Nc4cc(C(F)(F)F)ccn4)cc3)c12 [Compound A-10-18, N-(4-(8-amino-1-(4-((4-(trifluoromethyl)pyridin-2-yl)carbamoyl)phenyl)imidazo[1,5-a]pyrazin-3-yl)bicyclo[2.2.1]heptan-1-yl)picolinamide] | 10 to 50 | 1 to 10
2 | Nc1ncnc2c1n(-c1ccc(C(=O)Nc3cc(C(F)(F)F)ccn3)cc1)c(=O)n2C12CCC(NC(=O)CN3CCOCC3)(CC1)C2 [Compound C-7-2, 4-(6-amino-9-(4-(2-morpholinoacetamido)bicyclo[2.2.1]heptan-1-yl)-8-oxo-8,9-dihydro-7H-purin-7-yl)-N-(4-(trifluoromethyl)pyridin-2-yl)benzamide] | 1 to 10 | 0.1 to 1
3 | CC#CC(=O)NC12CCC(c3nc(-c4ccc(C(=O)Nc5cc(F)ccn5)cc4)c4c(N)nccn34)(CC1)C2 [Compound A-7-2, 4-(8-amino-3-(4-(but-2-ynamido)bicyclo[2.2.1]heptan-1-yl)imidazo[1,5-a]pyrazin-1-yl)-N-(4-fluoropyridin-2-yl)benzamide] | 1 to 10 | 0.1 to 1
4 | CC#CC(=O)NC12CCC(c3nc(-c4ccc(C(=O)Nc5cc(C(F)(F)F)ccn5)cc4)c4c(N)nccn34)(CC1)C2 [Compound A-7-3, 4-(8-amino-3-(4-(but-2-ynamido)bicyclo[2.2.1]heptan-1-yl)imidazo[1,5-a]pyrazin-1-yl)-N-(4-(trifluoromethyl)pyridin-2-yl)benzamide] | 0.1 to 1 | 0.1 to 1
5 | COc1ccccc1C(=O)NC12CCC(c3nc(-c4ccc(C(=O)Nc5cc(C(F)(F)F)ccn5)cc4)c4c(N)nccn34)(CC1)C2 [Compound A-10-20, N-(4-(8-amino-1-(4-((4-(trifluoromethyl)pyridin-2-yl)carbamoyl)phenyl)imidazo[1,5-a]pyrazin-3-yl)bicyclo[2.2.1]heptan-1-yl)-2-methoxybenzamide] | 10 to 50 | 1 to 10
6 | COCCC(=O)NC12CCC(c3nc(-c4ccc(CNC(=O)c5cc(F)ccc5OC)cc4)c4c(N)nccn34)(CC1)C2 [Compound A-16-2, N-(4-(8-amino-3-(4-(3-methoxypropanamido)bicyclo[2.2.1]heptan-1-yl)imidazo[1,5-a]pyrazin-1-yl)benzyl)-5-fluoro-2-methoxybenzamide] | 1 to 10 | 1 to 10
7 | CC(C)(O)C(=O)NC12CCC(c3nc(-c4ccc(Oc5ccccc5)cc4)c4c(N)nccn34)(CC1)C2 [Compound A-13-1, N-(4-(8-amino-1-(4-phenoxyphenyl)imidazo[1,5-a]pyrazin-3-yl)bicyclo[2.2.1]heptan-1-yl)-2-hydroxy-2-methylpropanamide] | 1 to 10 | 1 to 10
8 | Nc1nccn2c(C34CCC(NC(=O)c5ccco5)(CC3)C4)nc(-c3ccc(C(=O)Nc4cc(C(F)(F)F)ccn4)cc3)c12 [Compound A-10-21, N-(4-(8-amino-1-(4-((4-(trifluoromethyl)pyridin-2-yl)carbamoyl)phenyl)imidazo[1,5-a]pyrazin-3-yl)bicyclo[2.2.1]heptan-1-yl)furan-2-carboxamide] | 1 to 10 | 1 to 10
9 | N#CCC(=O)NC12CCC(c3nc(-c4ccc(C(=O)Nc5cc(C(F)(F)F)ccn5)cc4)c4c(N)nccn34)(CC1)C2 [Compound A-10-13, 4-(8-amino-3-(4-(2-cyanoacetamido)bicyclo[2.2.1]heptan-1-yl)imidazo[1,5-a]pyrazin-1-yl)-N-(4-(trifluoromethyl)pyridin-2-yl)benzamide] | 1 to 10 | ≤ 0.1
10 | CC#CC(=O)NC12CCC(c3nc(-c4ccc(Oc5ccccc5)cc4)c4c(N)nccn34)(CC1)C2 [Compound A-7-14, N-(4-(8-amino-1-(4-phenoxyphenyl)imidazo[1,5-a]pyrazin-3-yl)bicyclo[2.2.1]heptan-1-yl)but-2-ynamide] | 1 to 10 | 0.1 to 1

Further lines, results first:

Row | IC50 (BTK(wt)) [nM] | IC50 (BTK(C481S)) [nM] | Structure (SMILES)
11 | 1 to 10 | ≤ 0.1 | CC(C)(O)C(=O)NC12CCC(c3nc(-c4ccc(C(=O)Nc5cc(C(F)(F)F)ccn5)cc4)c4c(N)nccn34)(CC1)C2 [Compound A-10-6, 4-(8-amino-3-(4-(2-hydroxy-2-methylpropanamido)bicyclo[2.2.1]heptan-1-yl)imidazo[1,5-a]pyrazin-1-yl)-N-(4-(trifluoromethyl)pyridin-2-yl)benzamide]
12 | 1 to 10 | 1 to 10 | CC1(C(=O)NC23CCC(c4nc(-c5ccc(Oc6ccccc6)cc5)c5c(N)nccn45)(CC2)C3)COC1 [Compound A-13-3, N-(4-(8-amino-1-(4-phenoxyphenyl)imidazo[1,5-a]pyrazin-3-yl)bicyclo[2.2.1]heptan-1-yl)-3-methyloxetane-3-carboxamide]
13 | 1 to 10 | 1 to 10 | COc1ccc(F)cc1C(=O)NCc1ccc(-c2nc(C34CCC(NC(=O)CN5CCOCC5)(CC3)C4)n3ccnc(N)c23)cc1 [Compound A-16-4, N-(4-(8-amino-3-(4-(2-morpholinoacetamido)bicyclo[2.2.1]heptan-1-yl)imidazo[1,5-a]pyrazin-1-yl)benzyl)-5-fluoro-2-methoxybenzamide]
14 | 10 to 50 | 1 to 10 | Nc1nccn2c(C34CCC(NC(=O)CN5CCOCC5)(CC3)C4)nc(-c3ccc(Oc4ccccc4)cc3)c12 [Compound A-13-4, N-(4-(8-amino-1-(4-phenoxyphenyl)imidazo[1,5-a]pyrazin-3-yl)bicyclo[2.2.1]heptan-1-yl)-2-morpholinoacetamide]
15 | 1 to 10 | ≤ 0.1 | CC1(C(=O)NC23CCC(c4nc(-c5ccc(C(=O)Nc6cc(C(F)(F)F)ccn6)cc5)c5c(N)nccn45)(CC2)C3)COC1 [Compound A-10-5, N-(4-(8-amino-1-(4-((4-(trifluoromethyl)pyridin-2-yl)carbamoyl)phenyl)imidazo[1,5-a]pyrazin-3-yl)bicyclo[2.2.1]heptan-1-yl)-3-methyloxetane-3-carboxamide]
16 | 1 to 10 | 0.1 to 1 | COCCC(=O)NC12CCC(c3nc(-c4ccc(Oc5ccccc5)cc4)c4c(N)nccn34)(CC1)C2 [Compound A-13-2, N-(4-(8-amino-1-(4-phenoxyphenyl)imidazo[1,5-a]pyrazin-3-yl)bicyclo[2.2.1]heptan-1-yl)-3-methoxypropanamide]
17 | 1 to 10 | 0.1 to 1 | N#CC1(C(=O)NC23CCC(c4nc(-c5ccc(C(=O)Nc6cc(C(F)(F)F)ccn6)cc5)c5c(N)nccn45)(CC2)C3)CCOCC1 [Compound A-10-15, N-(4-(8-amino-1-(4-((4-(trifluoromethyl)pyridin-2-yl)carbamoyl)phenyl)imidazo[1,5-a]pyrazin-3-yl)bicyclo[2.2.1]heptan-1-yl)-4-cyanotetrahydro-2H-pyran-4-carboxamide]
18 | 1 to 10 | 0.1 to 1 | CC#CC(=O)NC12CCC(c3nc(-c4ccc(C(=O)Nc5cc(C(F)(F)F)ccn5)cc4F)c4c(N)nccn34)(CC1)C2 [Compound A-7-9, 4-(8-amino-3-(4-(but-2-ynamido)bicyclo[2.2.1]heptan-1-yl)imidazo[1,5-a]pyrazin-1-yl)-3-fluoro-N-(4-(trifluoromethyl)pyridin-2-yl)benzamide]
19 | 1 to 10 | ≤ 0.1 | COCCC(=O)NC12CCC(c3nc(-c4ccc(C(=O)Nc5cc(C(F)(F)F)ccn5)cc4)c4c(N)nccn34)(CC1)C2 [Compound A-10-8, 4-(8-amino-3-(4-(3-methoxypropanamido)bicyclo[2.2.1]heptan-1-yl)imidazo[1,5-a]pyrazin-1-yl)-N-(4-(trifluoromethyl)pyridin-2-yl)benzamide]
